The structures appear in SMILES notation. Read-outs that look alike come from different tables or passages of the source.

Consider five compounds from US12673918B2, “Small molecule RPN13 inhibitors with antitumor properties” (The Johns Hopkins University, priority 2019, dated 2026).

The subject of one data set is TOV21G. The data set is described as follows: MTT cytotoxicity assay, TOV21G.
The next data set has as its system HCC1395. Nature of the data set: MTT cytotoxicity assay, HCC1395. The following applies: Homo sapiens, HCC1395, read-out: cytotoxicity IC50 HCC1395. Background: Tetrazolium dyes change colour on reduction, which living cells bring about.
A further data set relates to HCT116. Nature of the data set: MTT cytotoxicity assay, HCT116.
For the next data set, the system named is HEC-1A. Nature of the data set: MTT cytotoxicity assay, HEC-1A. The following applies: read-out: cytotoxicity IC50 HEC-1A, Tables 3A/4B/4C.
For a further data set, the system named is DLD-BRCA2-Ve. Nature of the data set: MTT cytotoxicity assay, DLD-BRCA2-Ve. The following applies: read-out: cytotoxicity IC50 DLD-BRCA2-Ve.
Another data set concerns ES2. The data set is described as follows: MTT cytotoxicity assay, ES2.
The test system of a further data set is SKOV3. The data set is described as follows: MTT cytotoxicity assay, SKOV3. The following applies: Homo sapiens, SK-OV-3, read-out: cytotoxicity IC50 SKOV3.
The nature of the next data set: in vivo. The following applies: female, CD1, mouse, ip. On the procedure:
Pilot safety studies were performed in CD1 mice (n=3/dose group of healthy female mice aged 6-8 weeks) with increasing single doses delivered i.p. and the NOAEL (no-observed-adverse-effect level) was selected for further animal studies. […] Bortezomib was dissolved in a minimal amount of DMSO and further diluted with saline before injection in a dose finding study. […] To measure on-target inhibition of proteasome activity in mice, a leg muscle of CD-1 mice was transduced with the 4UbFL reporter construct. […] Briefly, mouse leg muscle was electroporated with 4UbFL plasmid and basal bioluminescence was measured after 24 hr using IVIS200 imager after injecting luciferin substrate. Mice were randomized (n=5/group) and treated with compounds in PEG400: Cremophor: Tween40 combination or vehicle alone as shown in Table 5 with one dose delivered by intraperitoneal injection. The mice were again imaged at 4 h, 24 h, 48 h post treatment.

In data set [1] the test system is polyubiquitinated proteins. The data set is described as follows: Western blot of polyubiquitinated proteins, SKOV3 cells. The data set is classed as cell-based, human. The following applies: 4 h. On the procedure: FIG. 14A illustrates SKOV3 cells treated with compounds for 4 h and analyzed by Western blot analysis with antibody to ubiquitin.
Antibodies, reagents, and Western Blot Analyses: Cell lysate (10-20 μg total protein) prepared in MPER (Pierce) from each sample was subjected to SDS-PAGE, transferred to PVDF membranes and analyzed by Western blot using antibodies specific Bax (#2772, Cell Signaling), ubiquitin (P4D1, sc-8017, Santa Cruz), PARP (#9542, BD Pharmingen), actin (#66009, Protein Tech Group), Tubulin(#66031, Protein Tech Group), ADRM1/Rpn13 (D9Z1U, #12019, Cell Signaling), Lys48-linkled ubiquitin (Apu 2, 05-1307, (Millipore), Annexin V (#559763, BD pharmingen), caspase-3 (51-68655X, BD Pharmingen) at the dilutions recommended by the manufacturers, and for secondary antibodies either peroxidase-linked anti-mouse IgG or anti-rabbit IgG (GE Healthcare UK Ltd) were utilized, HRP conjugated streptavidin (N100, Thermo Fisher) at the recommended dilution (1:5000). MitoTracker Red CMXRos reagent was purchased from ThermoFisher #M7512. The blots were developed using HyGLO chemiluminescent detection reagent (Denville).
Background: Immunoblotting shows a protein as a band on a membrane.

A further data set has as its system intracellular ATP. Nature of the data set: Luciferase-based ATP measurement, ES2 cells. The class given is cell-based, human. The following applies: luciferase expressing ES2 cells, 4 hr, sublethal doses. On the procedure:
Briefly, firefly luciferase expressing ES2 cells were treated for 4 hr with compounds at sublethal doses and the bioluminescence was measured in intact cells using luminometer by adding luciferin. […] This is associated with enhanced glycolysis while bortezomib suppresses oxidative phosphorylation (OXPHOS) (66).
ATP measurement assay: To measure ATP levels in cells, luciferase based bioluminescence assay was performed. Briefly cells stably expressing firefly luciferase plated in a 6 well plate (250,000 cells/well) in growth medium. After 24 h incubation, cells were treated with compounds at indicated concentrations for the period of 4 h and the bioluminescence was measured by IVIS 200 imager in intact cells by adding luciferin substrate to the growth medium. Cell viability was assessed in parallel using an MTT assay.

For a further data set, the system named is CaSki. The data set is described as follows: MTT cytotoxicity assay, CaSki.
In another data set the test system is DLD-Seckle. Nature of the data set: MTT cytotoxicity assay, DLD-Seckle. The following applies: read-out: cytotoxicity IC50 DLD-Seckle.
A further data set concerns SiHa. The data set is described as follows: MTT cytotoxicity assay, SiHa.
The subject of a further data set is PEO1. The data set is described as follows: cells. The following applies: Homo sapiens, PEO1, read-out: cytotoxicity IC50 PEO1.
In the next data set the test system is KLE. The data set is described as follows: MTT cytotoxicity assay, KLE. The following applies: read-out: cytotoxicity IC50 KLE, Tables 3A/4B/4C.
For the next data set, the system named is A2780. The data set is described as follows: MTT cytotoxicity assay, A2780. The following applies: read-out: cytotoxicity IC50 A2780; Tables 3A/4B/4C; MTT assay.
The next data set has as its system SSC90. Nature of the data set: MTT cytotoxicity assay, SSC90.
The subject of another data set is HS578T. Nature of the data set: MTT cytotoxicity assay, HS578T. The following applies: read-out: cytotoxicity IC50 HS578T; Tables 3A/4B/4C; MTT assay.
Another data set concerns ANBL6-V10R. The data set is described as follows: MTT cytotoxicity assay, ANBL6-V10R. The class given is cell-based. The following applies: read-out: IC50 ANBL6-V10R.
In the next data set the test system is MM.1S. The data set is described as follows: MTT cytotoxicity assay, MM.1S. The class given is cell-based. The following applies: Homo sapiens, MM1.S, read-out: IC50 MM.1S.
Another data set deals with RPMI8226. Nature of the data set: MTT cytotoxicity assay, RPMI8226. The class given is cell-based. The following applies: Homo sapiens, read-out: IC50 RPMI8226.
For the next data set, the system named is LNCaP. Nature of the data set: MTT cytotoxicity assay, LNCaP. The following applies: Homo sapiens.
Where [2] appears, read: read-out: cytotoxicity IC50 TOV21G, Tables 3A/4B/4C, MTT assay.
Where [3] appears, read: read-out: cytotoxicity IC50 HCT116, Tables 3A/4B/4C, MTT assay.
The mark [4] stands for this setting: read-out: cytotoxicity IC50 ES2, Tables 3A/4B/4C, MTT assay.
Setting [5] is: read-out: cytotoxicity IC50 CasKi, Tables 3A/4B/4C, MTT assay.
[6] abbreviates: read-out: cytotoxicity IC50 SiHa, Tables 3A/4B/4C, MTT assay.
The mark [7] stands for this setting: read-out: cytotoxicity IC50 SSC90, Tables 3A/4B/4C, MTT assay.
Where [8] appears, read: read-out: cytotoxicity IC50 LNCAP.

Procedure for ANBL6-V10R: (§1) The cytotoxic efficacy of selected compounds was assessed against multiple myeloma (MM) cell lines, as this is a validated clinical target for the licensed proteasome inhibitors.
(§2) Cell lines and cytotoxicity assays: All cell lines were obtained from the American Type Culture Collection (ATCC) and cultured in the specified medium supplemented with 10% fetal bovine serum, 100 IU/mL penicillin, and 100 μg/mL streptomycin at 37° C. in a humidified 5% CO2/95% air incubator. […] To assess drug cytotoxicity, cells were seeded at 2,500 cells/well (10,000 cells/well for MM lines) in 100 μL medium in 96-well plate and after 24 treated with compounds for 72 h, incubated according to the manufacturer's protocol with the Thiazolyl Blue Tetrazolium Bromide (Sigma, M2128) and A570 measured using a Benchmark Plus microplate spectrophotometer (BIO-RAD). IC50 data was analyzed by Graphpad Prism software.
Procedure for DLD-BRCA2-Ve: (§3) Cell lines and cytotoxicity assays: All cell lines were obtained from the American Type Culture Collection (ATCC) and cultured in the specified medium supplemented with 10% fetal bovine serum, 100 IU/mL penicillin, and 100 μg/mL streptomycin at 37° C. in a humidified 5% CO2/95% air incubator. […] To assess drug cytotoxicity, cells were seeded at 2,500 cells/well (10,000 cells/well for MM lines) in 100 μL medium in 96-well plate and after 24 treated with compounds for 72 h, incubated according to the manufacturer's protocol with the Thiazolyl Blue Tetrazolium Bromide (Sigma, M2128) and A570 measured using a Benchmark Plus microplate spectrophotometer (BIO-RAD). IC50 data was analyzed by Graphpad Prism software. In the chirality studies the cells were treated with compounds for 48 h, and the cells were incubated and measured via the preceeding protocols.
Procedure for DLD-Seckle: as §3
Procedure for MM.1S: as §1, §2
Procedure for PEO1: as §3
Procedure for RPMI8226: as §1, §2

As a reminder, the NOAEL is the highest dose or exposure tested at which no adverse effect was seen. Consider `C[C@H]1/C(=C\c2ccc([N+](=O)[O-])cc2)C(=O)/C(=C/c2ccc([N+](=O)[O-])cc2)CN1C(=O)[C@@H](N)Cc1ccccc1`, for which the IC50 in the data set on TOV21G (setting [2]) worked out at 3.6 nM; with HCC1395, 75 nM; in the data set on HCT116 (setting [3]) it was 80 nM; in the data set on HEC-1A it was 207 nM; with DLD-BRCA2-Ve, 55 nM; in the data set on ES2 (setting [4]), 40 nM. Besides, the IC50 with SKOV3 turned out to be 40 nM; in the data set on CaSki (setting [5]), 27 nM; with DLD-Seckle, 55 nM; with SiHa (setting [6]), 34 nM; with PEO1, 31 nM; in the data set with KLE it was 1460 nM. The NOAEL in the data set “in vivo” stood at 30 mg/kg. The “accumulation of polyubiquitinated proteins” value (“accumulation” below) in data set [1] is given as “enhanced the accumulation of polyubiquitinated proteins”. Also, in the data set on intracellular ATP, the “ATP-dependent bioluminescence (intracellular ATP levels)” value is “reduced bioluminescence”.

Turning to `CC(C)C[C@H](NC(=O)[C@H](Cc1ccccc1)NC(=O)c1cnccn1)B(O)O` [Bortezomib, bortezomib, reference compound], the IC50 came to 3 nM with A2780; 3.2 nM with HCT116 (read-out: IC50 HCT116, Table 3, MTT, 48 hr, Colon); 153 nM in the data set on HEC-1A; 1.5 nM in the data set on SKOV3; 15 nM with SSC90 (setting [7]); 13 nM in the data set on HS578T. Also, the IC50 in the data set on PEO1 was determined as 31 nM; in the data set with KLE, 1190 nM. In addition, the NOAEL in “in vivo” turned out to be 0.75 mg/kg. Moreover, the “accumulation” value in data set [1] is “enhanced the accumulation of polyubiquitinated proteins”. The “ATP-dependent bioluminescence (intracellular ATP levels)” value with intracellular ATP is recorded as “not evident”.

On to `N[C@@H](Cc1ccccc1)C(=O)N1C/C(=C\c2ccc(Cl)c(Cl)c2)C(=O)/C(=C/c2ccc(Cl)c(Cl)c2)C1` [RA190, reference compound], for which the IC50 came to 139 nM in the data set with A2780; 83 nM in the data set with TOV21G (read-out: IC50 TOV21G, Table 3, MTT, 48 hr, Ovarian); 148 nM in the data set on TOV21G (setting [2]); 0.35 nM with HCC1395; 239 nM in the data set on HCT116 (setting [3]); 431 nM in the data set on HEC-1A. In addition, the IC50 in the data set on ES2 (setting [4]) is 115 nM; with SKOV3, 73 nM; in the data set on ANBL6-V10R (Table 3, MTT, 48 hr, Multiple Myeloma, bortezomib resistant), 55 nM; with CaSki (setting [5]), 324 nM; with SSC90 (setting [7]), 625 nM; with SiHa (setting [6]), 603 nM. Moreover, the IC50 with HS578T turned out to be 78 nM; in the data set with PEO1, 232 nM; with MM.1S (Table 3, MTT, 48 hr, Multiple Myeloma) it was 72 nM; with KLE it was 1590 nM; with RPMI8226 (RPMI-8226, Table 3, MTT, 48 hr, Multiple Myeloma) it was 45 nM; with LNCaP (setting [8]) it was 242 nM.

Take `O=C(CCl)N[C@@H](Cc1ccccc1)C(=O)N1C/C(=C\c2ccc([N+](=O)[O-])cc2)C(=O)/C(=C/c2ccc([N+](=O)[O-])cc2)C1` [RA375]: the IC50 in the data set on TOV21G (read-out: IC50 TOV21G) stood at 6 nM; in the data set on HCT116 (setting [3]), 89 nM; with DLD-BRCA2-Ve it was 18 nM; in the data set on ES2 (read-out: IC50 ES2), 19 nM; in the data set with SKOV3 it was 26 nM; with ANBL6-V10R (48 h), 16 nM. Besides, the IC50 is 43 nM with CaSki (read-out: IC50 CaSki); 3 nM in the data set with CaSki (setting [5]); 43 nM in the data set with DLD-Seckle; 24 nM in the data set on SSC90 (read-out: IC50 SSC90); 41 nM in the data set on SiHa (read-out: IC50 SiHa); 27 nM in the data set on PEO1. In addition, the IC50 with MM.1S (48 h) turned out to be 11 nM; in the data set with RPMI8226 (RPMI-8226, 48 h), 9 nM; with LNCaP (48 h, read-out: IC50 LNCaP) it was 60 nM.

Regarding `CC1/C(=C\c2ccc([N+](=O)[O-])cc2)C(=O)/C(=C/c2ccc([N+](=O)[O-])cc2)CN1C(=O)[C@H](Cc1ccccc1)NC(=O)CCl` (stereo partly shown) [RA414], the IC50 with A2780 is 3.5 nM; in the data set on TOV21G (setting [2]) it was 1.1 nM; with HCC1395, below 15 nM; in the data set with HCT116 (setting [3]), 20 nM; in the data set on HEC-1A, 196 nM; in the data set with DLD-BRCA2-Ve, below 40 nM. The IC50 is 7.5 nM in the data set with ES2 (setting [4]); below 20 nM in the data set on SKOV3; below 40 nM in the data set with DLD-Seckle; below 20 nM in the data set on SSC90 (setting [7]); 7.5 nM in the data set on SiHa (setting [6]); 1.5 nM with HS578T. Also, the IC50 in the data set with PEO1 was 30 nM; with KLE, 1120 nM; in the data set on LNCaP (setting [8]), 24 nM. Further, the NOAEL in “in vivo” was 3 mg/kg. Besides, in data set [1], the “accumulation” value is recorded as “enhanced the accumulation of polyubiquitinated proteins”.
